Biological target: T1, p38 MAPK/MK2 (Homo sapiens, UniProt Q16539)
T1 construct: purchased Carna (p38α); Abcam (MK2) 04-152; 79910
Assay: In vitro activity assay of p38 MAPK/MK2 (Z-LYTE kinase assay kit)
Format: biochemical
Conditions: active p38α, inactive MK2, Ser/Thr 4; 1-hour reaction at 20° C.
Description: (§1) The inhibitory effect of the compound on p38 MAPK/MK2 was evaluated using the Z-LYTE kinase assay kit (Thermo, PV3177). The test compound was dissolved in DMSO to obtain a 10 mM stock solution and stored at −20° C. for future use. The initial concentration of the compound was […], with 1% DMSO, 5-fold serial dilution, 8 concentrations, and duplicate wells. […] After a 1-hour reaction at 20° C., Development Reagent A diluted 2048-fold was added to each well, followed by incubation at room temperature for 1 hour. The reaction was terminated by adding 5 μL of stop buffer, and the plate was read using a microplate reader (Ex. 400 nm, Em. 445 nm; Ex. 400 nm, Em. 520 nm). The concentration-effect curve was fitted using GraphPad Prism 8 software, and the compound concentration resulting in 50% inhibition, IC50, was calculated.

T1 sequence (Q16539 whole entry): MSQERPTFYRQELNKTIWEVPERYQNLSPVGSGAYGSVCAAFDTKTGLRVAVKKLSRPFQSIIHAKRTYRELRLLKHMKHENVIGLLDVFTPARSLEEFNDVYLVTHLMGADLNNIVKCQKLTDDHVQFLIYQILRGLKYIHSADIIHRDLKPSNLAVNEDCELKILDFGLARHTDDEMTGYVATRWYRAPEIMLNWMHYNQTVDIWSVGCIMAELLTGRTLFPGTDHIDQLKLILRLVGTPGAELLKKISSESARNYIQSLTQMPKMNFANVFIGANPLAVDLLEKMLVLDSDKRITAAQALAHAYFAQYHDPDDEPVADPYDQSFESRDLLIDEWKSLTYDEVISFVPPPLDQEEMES
T1 sequence (P49137 whole entry partner): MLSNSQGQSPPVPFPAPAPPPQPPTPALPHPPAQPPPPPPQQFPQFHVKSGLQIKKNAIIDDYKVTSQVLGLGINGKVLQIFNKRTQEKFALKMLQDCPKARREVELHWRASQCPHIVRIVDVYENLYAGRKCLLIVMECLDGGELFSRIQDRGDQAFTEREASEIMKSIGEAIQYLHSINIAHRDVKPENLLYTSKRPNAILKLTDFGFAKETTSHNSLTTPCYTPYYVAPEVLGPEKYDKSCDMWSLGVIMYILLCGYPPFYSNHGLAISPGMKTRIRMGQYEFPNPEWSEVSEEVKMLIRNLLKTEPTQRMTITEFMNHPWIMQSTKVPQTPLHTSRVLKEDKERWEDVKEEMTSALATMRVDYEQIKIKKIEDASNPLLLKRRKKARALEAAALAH

| IC50 [nM] | SMILES |
| --- | --- |
| 50.5 | Cc1cnc(-c2cccc(C(N)=O)c2)cc1-n1c(C)cc(OCc2ncc(F)cc2F)c(Cl)c1=O [Compound 4] |
| 4.86 | Cc1cnc(-c2cccc(C(=O)O)c2)c(F)c1-n1c(C)cc(OCc2ncc(F)cc2F)c(Cl)c1=O [Compound 29-P1] |
| 0.16 | Cc1cnc(-c2cccc(C(N)=O)c2)c(F)c1-n1c(C)cc(OCc2ncc(F)cc2F)c(Cl)c1=O [Compound 30-P1] |

System: not listed separately
Assay: In vitro liver microsome stability, mouse
Format: in vitro ADME
Conditions: liver microsomes, 0.5 mg/mL microsomes, 1 μM compound, NADPH, 37° C., read-out: Mouse liver microsomes Half-life T1/2
Description: (§2) The reference compound used in this experiment was Ketanserin, and the final concentration of microsomes in the experimental system was 0.5 mg/mL. The PBS buffer was a 50 mM K2HPO4 buffer. The concentration of the test compound was 1 μM. The microsomes were added to PBS, and the control/test compounds were respectively added to the corresponding reaction systems, mixed thoroughly, and pre-incubated in a 37° C. water bath for 5 minutes. The reaction was initiated by adding 20 mM NADPH solution under 37° C. water bath conditions (for the No NADPH samples, an equal volume of PBS solution was used as a substitute for the 20 mM NADPH solution). At the reaction time points of 0 min, 10 min, 30 mun, 60 min, and 90 min, 30 μL of reaction samples were taken from each reaction system (for the No NADPH samples, sampling was performed at 0 min and 90 min), and the reaction was immediately terminated by adding 300 μL of the internal standard acetonitrile solution. After centrifugation at 4000 rpm, the supernatant was taken and mixed thoroughly with an equal volume of pure water. The samples at each time point were analyzed by LC-MS/MS (AB Triple Quard 5500) to determine the compound content, and the T1/2 was calculated.

| half-life at 1 μM [h] | SMILES |
| --- | --- |
| 2.93 | Cc1cnc(-c2cccc(C(N)=O)c2)cc1-n1c(C)cc(OCc2ncc(F)cc2F)c(Cl)c1=O [Compound 4] |
| > 4.66 | Cc1cnc(-c2cccc(C(=O)O)c2)c(F)c1-n1c(C)cc(OCc2ncc(F)cc2F)c(Cl)c1=O [Compound 29-P1] |

Biological target: T2, p38 MAPK/MK5 (Homo sapiens, UniProt Q16539)
T2 construct: purchased Carna (p38α); Abcam (MK5) 04-152; 217826
Assay: In vitro activity assay of p38 MAPK/MK5 (Z-LYTE kinase assay kit)
Format: biochemical
Conditions: active p38α, inactive MK5, Ser/Thr 4; 4-hour reaction at 20° C.
Description: as §1, with “MAPK/MK5” for “MAPK/MK2”, “4-hour” for “1-hour”, “µL” for “μL”

T2 sequence (Q16539 whole entry): as the sequence (Q16539 whole entry) above

| IC50 [nM] | SMILES |
| --- | --- |
| 6590 | Cc1cnc(-c2cccc(C(N)=O)c2)cc1-n1c(C)cc(OCc2ncc(F)cc2F)c(Cl)c1=O [Compound 4] |
| 5660 | Cc1cnc(-c2cccc(C(N)=O)c2)c(F)c1-n1c(C)cc(OCc2ncc(F)cc2F)c(Cl)c1=O [Compound 30-P1] |

System: not listed separately
Assay: In vitro liver microsome stability, human
Format: in vitro ADME
Conditions: liver microsomes, 0.5 mg/mL microsomes, 1 μM compound, NADPH, 37° C., read-out: Human liver microsomes Half-life T1/2
Description: as §2

| half-life at 1 μM [h] | SMILES |
| --- | --- |
| > 4.66 | Cc1cnc(-c2cccc(C(N)=O)c2)cc1-n1c(C)cc(OCc2ncc(F)cc2F)c(Cl)c1=O [Compound 4] |
| > 4.66 | Cc1cnc(-c2cccc(C(=O)O)c2)c(F)c1-n1c(C)cc(OCc2ncc(F)cc2F)c(Cl)c1=O [Compound 29-P1] |

System: not listed separately
Assay: In vitro liver microsome stability, rat
Format: in vitro ADME
Conditions: liver microsomes, 0.5 mg/mL microsomes, 1 μM compound, NADPH, 37° C., read-out: Rat liver microsomes Half-life T1/2
Description: as §2

| half-life at 1 μM [h] | SMILES |
| --- | --- |
| > 4.66 | Cc1cnc(-c2cccc(C(N)=O)c2)cc1-n1c(C)cc(OCc2ncc(F)cc2F)c(Cl)c1=O [Compound 4] |
| > 4.66 | Cc1cnc(-c2cccc(C(=O)O)c2)c(F)c1-n1c(C)cc(OCc2ncc(F)cc2F)c(Cl)c1=O [Compound 29-P1] |

System: TNF-α in human PBMC cells
Assay: In vitro TNF-α activity assay in human PBMC cell supernatant (LPS, ELISA)
Format: cell-based
Conditions: Homo sapiens, PBMC, 24 h, LPS 100 ng/mL, read-out: p38 MAPK/TNF-α IC50
Description: The inhibitory effect of the compound on TNF-α in the supernatant of human PBMC cells was evaluated using an ELISA detection kit (Beyotime, PI518). The test compound was dissolved in DMSO to obtain a 10 mM stock solution and stored at −20° C. for future use. The initial concentration of the compound was […], followed by 5-fold serial dilution to obtain 6 concentrations. Cells were plated in duplicate, and ELISA was performed in single wells. The final concentration of DMSO was 0.4%. Alternatively, the initial concentration of the compound, dilution factor, number of concentration gradients, and replicates could be adjusted based on the specific screening conditions.
Fresh human peripheral blood mononuclear cells (PBMCs) (Sailybio) were seeded at a density of 2×10^5 cells per well in a 96-well plate (Corning, 3599), with each well containing 100 μL of RPMI-1640 (Gibco #A1049101)+10% FBS (Gibco, 10099141C), and incubated overnight at 37° C. under 5% CO2. Test compounds were added to the 96-well culture plate at a volume of 25 μL per well. After 1 hour, 5 μL of LPS was added to achieve a final concentration of 100 ng/mL. No LPS and compound were added to the negative control wells, and no compound was added to the positive control wells. The mixture was further incubated for 24 hours at 37° C. under 5% CO2. Subsequently, the cell culture supernatant was collected by centrifugation at 500 rcf for 8 minutes. The concentration of TNF-α was measured according to the operation manual of the ELISA kit. The concentration-effect curve was fitted using GraphPad Prism 8 software, and the compound concentration resulting in 50% inhibition, IC50, was calculated.

| SMILES | IC50 [nM] |
| --- | --- |
| Cc1cnc(-c2cccc(C(N)=O)c2)cc1-n1c(C)cc(OCc2ncc(F)cc2F)c(Cl)c1=O [Compound 4] | 96.7 |
| Cc1cnc(-c2cccc(C(N)=O)c2)c(F)c1-n1c(C)cc(OCc2ncc(F)cc2F)c(Cl)c1=O [Compound 30-P1] | 8.68 |

System: not listed separately
Assay: Pharmacokinetic evaluation in mice
Format: in vivo
Conditions: mouse, plasma, intravenous injection group 1 mg/kg, read-out: Area under curve AUC0-24 h
Description: The compound was weighed and dissolved in a mixed solvent of DMAC: Solutol: PBS (1:1:8. After intravenous/gastric administration to mice, whole blood ([…]) was collected at 0.083, 0.25, 0.5, 1, 2, 4, 7, and 24 hours. The samples were anticoagulated with EDTA-K2, immediately centrifuged at 4000 rpm for 5 minutes at 4° C., and the supernatant was frozen in a −80° C. refrigerator. Plasma sample processing: The samples were precipitated with an internal standard-containing CH3CN precipitant, followed by centrifugation at 12700 rpm for 10 min. The supernatant was collected and analyzed by LC-MS/MS (AB Triple Quard 5500) to obtain the plasma drug concentration. The parameters were calculated using a non-compartmental model in Winnolin version 8.1.

| AUC(0-t) [ng·h/mL] | SMILES |
| --- | --- |
| 1390 | Cc1cnc(-c2cccc(C(=O)O)c2)c(F)c1-n1c(C)cc(OCc2ncc(F)cc2F)c(Cl)c1=O [Compound 29-P1] |
| 1100 | Cc1cnc(-c2cccc(C(N)=O)c2)c(F)c1-n1c(C)cc(OCc2ncc(F)cc2F)c(Cl)c1=O [Compound 30-P1] |

Same assay, conditions: mouse, plasma, intravenous injection group 1 mg/kg, read-out: Clearance CL (converted)

| clearance [mL/min/kg] | SMILES |
| --- | --- |
| 10.4 | Cc1cnc(-c2cccc(C(=O)O)c2)c(F)c1-n1c(C)cc(OCc2ncc(F)cc2F)c(Cl)c1=O [Compound 29-P1] |
| 15.2 | Cc1cnc(-c2cccc(C(N)=O)c2)c(F)c1-n1c(C)cc(OCc2ncc(F)cc2F)c(Cl)c1=O [Compound 30-P1] |

Same assay, conditions: mouse, plasma, intravenous injection group 1 mg/kg, read-out: Half-life T1/2 (converted)

| half-life [h] | SMILES |
| --- | --- |
| 2.57 | Cc1cnc(-c2cccc(C(=O)O)c2)c(F)c1-n1c(C)cc(OCc2ncc(F)cc2F)c(Cl)c1=O [Compound 29-P1] |
| 0.47 | Cc1cnc(-c2cccc(C(N)=O)c2)c(F)c1-n1c(C)cc(OCc2ncc(F)cc2F)c(Cl)c1=O [Compound 30-P1] |

Same assay, conditions: mouse, plasma, intravenous injection group 1 mg/kg, read-out: Initial concentration C0

| C0 [ng/mL] | SMILES |
| --- | --- |
| 1450 | Cc1cnc(-c2cccc(C(=O)O)c2)c(F)c1-n1c(C)cc(OCc2ncc(F)cc2F)c(Cl)c1=O [Compound 29-P1] |
| 2410 | Cc1cnc(-c2cccc(C(N)=O)c2)c(F)c1-n1c(C)cc(OCc2ncc(F)cc2F)c(Cl)c1=O [Compound 30-P1] |

Same assay, conditions: mouse, plasma, intravenous injection group 1 mg/kg, read-out: Volume of distribution Vd

| Vd [L/kg] | SMILES |
| --- | --- |
| 1.83 | Cc1cnc(-c2cccc(C(=O)O)c2)c(F)c1-n1c(C)cc(OCc2ncc(F)cc2F)c(Cl)c1=O [Compound 29-P1] |
| 0.41 | Cc1cnc(-c2cccc(C(N)=O)c2)c(F)c1-n1c(C)cc(OCc2ncc(F)cc2F)c(Cl)c1=O [Compound 30-P1] |

Same assay, conditions: mouse, plasma, po, intragastric administration group 5 mg/kg, read-out: Area under curve AUC0-24 h

| AUC(0-t) [ng·h/mL] | SMILES |
| --- | --- |
| 6490 | Cc1cnc(-c2cccc(C(=O)O)c2)c(F)c1-n1c(C)cc(OCc2ncc(F)cc2F)c(Cl)c1=O [Compound 29-P1] |
| 2640 | Cc1cnc(-c2cccc(C(N)=O)c2)c(F)c1-n1c(C)cc(OCc2ncc(F)cc2F)c(Cl)c1=O [Compound 30-P1] |

Same assay, conditions: mouse, plasma, po, intragastric administration group 5 mg/kg, read-out: Bioavailability F %

| bioavailability [%] | SMILES |
| --- | --- |
| 80.6 | Cc1cnc(-c2cccc(C(=O)O)c2)c(F)c1-n1c(C)cc(OCc2ncc(F)cc2F)c(Cl)c1=O [Compound 29-P1] |
| 48 | Cc1cnc(-c2cccc(C(N)=O)c2)c(F)c1-n1c(C)cc(OCc2ncc(F)cc2F)c(Cl)c1=O [Compound 30-P1] |

Same assay, conditions: mouse, plasma, po, intragastric administration group 5 mg/kg, read-out: Half-life T1/2 (converted)

| half-life [h] | SMILES |
| --- | --- |
| 3.37 | Cc1cnc(-c2cccc(C(=O)O)c2)c(F)c1-n1c(C)cc(OCc2ncc(F)cc2F)c(Cl)c1=O [Compound 29-P1] |
| 3.31 | Cc1cnc(-c2cccc(C(N)=O)c2)c(F)c1-n1c(C)cc(OCc2ncc(F)cc2F)c(Cl)c1=O [Compound 30-P1] |

Same assay, conditions: mouse, plasma, po, intragastric administration group 5 mg/kg, read-out: Maximum concentration Cmax

| Cmax [ng/mL] | SMILES |
| --- | --- |
| 1380 | Cc1cnc(-c2cccc(C(=O)O)c2)c(F)c1-n1c(C)cc(OCc2ncc(F)cc2F)c(Cl)c1=O [Compound 29-P1] |
| 1570 | Cc1cnc(-c2cccc(C(N)=O)c2)c(F)c1-n1c(C)cc(OCc2ncc(F)cc2F)c(Cl)c1=O [Compound 30-P1] |

Biological target: T3, p38 MAPK/ATF2 (Homo sapiens, UniProt Q16539)
T3 construct: purchased Carna Biosciences (p38α); Sino Biological (ATF2) 04-152; 11599-H20B
Assay: In vitro activity assay of p38 MAPK/ATF2 (HTRF)
Format: biochemical
Conditions: p38α, Human ATF2 Protein, ATP; 35 min at 20° C.
Description: The inhibitory effect of the compound on p38a-catalyzed ATF2 was evaluated by the HTRF method. The test compound was dissolved in DMSO to obtain a 10 mM stock solution and stored at −20° C. for future use. The initial concentration of the compound was 10 μM, with 0.25% DMSO, 5-fold serial dilution, 8 concentrations, and duplicate wells. The reaction buffer, consisting of 40 mM Tris pH 7.5, 20 mM MgCl2, 0.1 mg/mL BSA, and 50 μM DTT, was used to prepare 3.5×p38α (MAPK14, Carna Biosciences, 04-152) protein working solution, 3.5×Human ATF2 Protein (Sino Biological, 11599-H20B) working solution, and 3.5×ATP working solution. The reaction was terminated with 10 mM EDTA. The final 14 μL reaction system was performed in a 96-well plate (cisbio, 66PL96025), containing 0.29 ng/μL p38a, […] Human ATF2 Protein, and 25 µM ATP. After reacting at 20° C. for 35 min, the pre-prepared antibody solution (cibio, 63ADK015PEG, Phospho-ATF2 Eu Cryptate antibody, Phospho-ATF2 d2 antibody, diluted 40-fold with Detection buffer) was added to each well and incubated overnight at room temperature. The samples were then measured using a microplate reader (HTRF compatible reader). The concentration-effect curve was fitted using GraphPad Prism 8 software, and the compound concentration resulting in 50% inhibition, IC50, was calculated.

| IC50 [nM] | SMILES |
| --- | --- |
| > 20000 | Cc1cnc(-c2cccc(C(N)=O)c2)cc1-n1c(C)cc(OCc2ncc(F)cc2F)c(Cl)c1=O [Compound 4] |
| 1150 | Cc1cnc(-c2cccc(C(=O)O)c2)c(F)c1-n1c(C)cc(OCc2ncc(F)cc2F)c(Cl)c1=O [Compound 29-P1] |
